From the supplement of paper PMC4862054

Assays:
Details in all cases: 72 h
[1] = test system: MDA-MB-453
How it was run: (§1)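 For viability, cells received 2.5 µl CellTiter-Blue for 2 h at 37 °C and fluorescence was read at 560/590 nm. Before this, breast cancer cell lines in 20 µl suspension had been incubated for 72 h on 384-well plates pre-loaded with compound dissolved in 5 µl medium. EC50 was obtained from a percent-inhibition dose-response fit censored at the highest concentration, after normalisation of each plate to vehicle and a positive kill control; rows with a zero drug sensitivity score were discarded.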

[2] = test system: DU-4475
How it was run: as §1

[3] = test system: CAL-85-1
How it was run: as §1

[4] = test system: HDQ-P1
How it was run: as §1

[5] = test system: BT-474
Description: (§2)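 Drug sensitivity and resistance testing (DSRT) of breast cancer cell lines in 384-well plates, 5 concentrations in 10-fold dilutions over a compound-specific 10,000-fold range. After 72 h, cytotoxicity was read by CellTox Green fluorescence and viability by CellTiter-Glo luminescence (multiplexed), normalised to DMSO and benzethonium chloride controls. EC50 is the inflection point of the fitted dose-response curve (bottom asymptote free, so it can be relative for partial curves) and is censored at the highest tested concentration. Rows with DSS 0 (no meaningful response) were excluded.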

[6] = test system: MDA-MB-231
Description: as §2

[7] = test system: MCF-10A
Description: as §2

[8] = test system: HCC1143
Description: as §2

[9] = test system: DU-4475; remark: listed apart in the source
Description: as §2

[10] = test system: CAL-85-1; remark: listed apart in the source
Description: as §2

[11] = test system: CAL-148
Description: as §2

[12] = test system: HDQ-P1; remark: listed apart in the source
Description: as §2

[13] = test system: Hs578T
Description: as §2

[14] = test system: CAL-51
Description: as §2

[15] = test system: BT-474; remark: listed apart in the source
How it was run: as §1

[16] = test system: MDA-MB-231; remark: listed apart in the source
How it was run: as §1

[17] = test system: HCC1599
How it was run: as §1

[18] = test system: MFM-223
How it was run: as §1

[19] = test system: HCC1143; remark: listed apart in the source
How it was run: as §1

[20] = test system: Hs578T; remark: listed apart in the source
How it was run: as §1

[21] = test system: BT-474; remark: listed apart in the source
How it was run: (§3)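 Per-plate normalisation used 0.1 % DMSO and a positive kill control. Breast cancer cell lines (20 µl suspension) were seeded into 384-well plates containing compound at 5 concentrations in 10-fold steps across a compound-specific 10,000-fold range, incubated for 72 h, and read first for CellTox Green fluorescence (485/520 nm), then for CellTiter-Glo luminescence. EC50 was fitted from the dose-response curves and censored at the top concentration.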

[22] = test system: MDA-MB-231; remark: listed apart in the source
How it was run: as §3

[23] = test system: HCC1599; remark: listed apart in the source
How it was run: as §3

[24] = test system: MDA-MB-453; remark: listed apart in the source
How it was run: as §3

[25] = test system: MFM-223; remark: listed apart in the source
How it was run: as §3

[26] = test system: MCF-10A; remark: listed apart in the source
How it was run: as §3

[27] = test system: HCC1143; remark: listed apart in the source
How it was run: as §3

[28] = test system: SK-BR-3
How it was run: as §3

[29] = test system: MDA-MB-436
How it was run: as §3

[30] = test system: BT-549
How it was run: as §3

[31] = test system: DU-4475; remark: listed apart in the source
How it was run: as §3

[32] = test system: CAL-85-1; remark: listed apart in the source
How it was run: as §3

[33] = test system: HCC1937
How it was run: as §3

[34] = test system: CAL-148; remark: listed apart in the source
How it was run: as §3

[35] = test system: HDQ-P1; remark: listed apart in the source
How it was run: as §3

[36] = test system: Hs578T; remark: listed apart in the source
How it was run: as §3

[37] = test system: CAL-51; remark: listed apart in the source
How it was run: as §3

[38] = test system: CAL-120
Description: as §2

[39] = test system: HCC1599; remark: listed apart in the source
Description: as §2

[40] = test system: MFM-223; remark: listed apart in the source
Description: as §2

[41] = test system: BT-549; remark: listed apart in the source
Description: as §2

[42] = test system: MDA-MB-468
Description: as §2

[43] = test system: MDA-MB-468; remark: listed apart in the source
How it was run: as §1

[44] = test system: HCC1937; remark: listed apart in the source
Description: as §2

Structure (SMILES)	EC50, CellTiter-Blue viability [1]	EC50, CellTiter-Blue viability [2]	EC50, CellTiter-Blue viability [3]	EC50, CellTiter-Blue viability [4]	EC50, CellTox Green [5]	EC50, CellTox Green [6]	EC50, CellTox Green [7]	EC50, CellTox Green [14]	EC50, CellTiter-Glo [21]	EC50, CellTiter-Glo [22]	EC50, CellTiter-Glo [25]	EC50, CellTiter-Glo [27]	EC50, CellTiter-Glo [29]	EC50, CellTiter-Glo [30]	EC50, CellTiter-Glo [31]	EC50, CellTiter-Glo [33]	EC50, CellTiter-Glo [34]	EC50, CellTiter-Glo [35]	EC50, CellTiter-Glo [36]	EC50, CellTiter-Glo [37]	also measured
C=CCNC1=C2C[C@@H](C)C[C@H](OC)[C@H](O)[C@@H](C)/C=C(\C)[C@H](OC(N)=O)[C@@H](OC)/C=C\C=C(/C)C(=O)NC(=CC1=O)C2=O [Tanespimycin]	0.0155 µM	0.0484 µM	0.194 µM	0.0827 µM	0.696 µM	0.0248 µM	0.105 µM	0.122 µM	0.324 µM	0.371 µM	0.0641 µM	0.063 µM	0.028 µM	0.0529 µM	0.208 µM	0.113 µM	0.178 µM	0.103 µM	0.0979 µM	0.0782 µM	EC50, CellTox Green [8]: > 10 µM; EC50, CellTox Green [9]: 0.179 µM; EC50, CellTox Green [10]: 0.0461 µM; EC50, CellTox Green [11]: 0.112 µM; EC50, CellTox Green [12]: 0.112 µM; EC50, CellTox Green [13]: 4.34 µM; EC50, CellTiter-Blue viability [15]: 0.0484 µM; EC50, CellTiter-Blue viability [16]: 0.722 µM; EC50, CellTiter-Blue viability [17]: 0.0843 µM; EC50, CellTiter-Blue viability [18]: 0.0184 µM; EC50, CellTiter-Blue viability [19]: 0.00884 µM; EC50, CellTiter-Blue viability [20]: 0.0369 µM; EC50, CellTiter-Glo [23]: 0.266 µM; EC50, CellTiter-Glo [24]: 0.0234 µM; EC50, CellTiter-Glo [26]: 0.0878 µM; EC50, CellTiter-Glo [28]: 0.0463 µM; EC50, CellTiter-Glo [32]: 0.404 µM
CCN1CCN(c2ccc(Nc3cc(N(C)C(=O)Nc4c(Cl)c(OC)cc(OC)c4Cl)ncn3)cc2)CC1 [NVP-BGJ398]	–	–	–	–	–	–	–	–	–	–	0.0505 µM	–	–	–	–	–	–	–	> 1 µM	–	EC50, CellTox Green [38]: > 1 µM
CC[C@]1(O)C[C@@H]2CN(CCc3c([nH]c4ccccc34)[C@@](C(=O)OC)(c3cc4c(cc3OC)N(C)[C@H]3[C@@](O)(C(=O)OC)[C@H](OC(C)=O)[C@]5(CC)C=CCN6CC[C@]43[C@@H]65)C2)C1 [Vinblastine]	0.00617 µM	0.0524 µM	0.00634 µM	0.00543 µM	0.00292 µM	0.0158 µM	0.0114 µM	0.00378 µM	0.00538 µM	0.00507 µM	0.0124 µM	0.00251 µM	0.00349 µM	0.00225 µM	0.0755 µM	0.00255 µM	0.00895 µM	0.00535 µM	0.00925 µM	0.00868 µM	EC50, CellTox Green [39]: 0.00749 µM; EC50, CellTox Green [40]: 0.0079 µM; EC50, CellTox Green [8]: 0.0618 µM; EC50, CellTox Green [41]: 0.00429 µM; EC50, CellTox Green [38]: > 1 µM; EC50, CellTox Green [42]: 0.00248 µM; EC50, CellTox Green [10]: 0.00962 µM; EC50, CellTox Green [13]: 0.0152 µM; EC50, CellTiter-Blue viability [15]: 0.00015 µM; EC50, CellTiter-Blue viability [16]: 0.00161 µM; EC50, CellTiter-Blue viability [17]: 0.0611 µM; EC50, CellTiter-Blue viability [18]: 0.036 µM; EC50, CellTiter-Blue viability [19]: 0.00161 µM; EC50, CellTiter-Blue viability [43]: 0.0015 µM; EC50, CellTiter-Blue viability [20]: 0.0013 µM; EC50, CellTiter-Glo [23]: 0.0197 µM; EC50, CellTiter-Glo [24]: 0.00244 µM; EC50, CellTiter-Glo [26]: 0.00259 µM; EC50, CellTiter-Glo [28]: 0.00244 µM; EC50, CellTiter-Glo [32]: 0.00204 µM
Cc1c2oc3c(C)ccc(C(=O)N[C@@H]4C(=O)N[C@H](C(C)C)C(=O)N5CCC[C@H]5C(=O)N(C)CC(=O)N(C)[C@@H](C(C)C)C(=O)O[C@@H]4C)c3nc-2c(C(=O)N[C@@H]2C(=O)N[C@H](C(C)C)C(=O)N3CCC[C@H]3C(=O)N(C)CC(=O)N(C)[C@@H](C(C)C)C(=O)O[C@@H]2C)c(N)c1=O [Dactinomycin]	0.0019 µM	0.00072 µM	0.00203 µM	0.00167 µM	0.354 µM	0.00254 µM	0.027 µM	0.0021 µM	0.012 µM	0.0127 µM	0.0359 µM	0.00869 µM	0.00789 µM	0.00194 µM	0.00298 µM	0.00461 µM	0.00156 µM	0.00214 µM	0.0111 µM	0.00511 µM	EC50, CellTox Green [40]: 0.0939 µM; EC50, CellTox Green [8]: 0.167 µM; EC50, CellTox Green [41]: 0.00504 µM; EC50, CellTox Green [42]: 0.0436 µM; EC50, CellTox Green [10]: 0.0222 µM; EC50, CellTox Green [11]: 0.00144 µM; EC50, CellTox Green [13]: 0.0305 µM; EC50, CellTiter-Blue viability [15]: 0.0161 µM; EC50, CellTiter-Blue viability [16]: 0.00135 µM; EC50, CellTiter-Blue viability [17]: 0.00818 µM; EC50, CellTiter-Blue viability [18]: 0.0148 µM; EC50, CellTiter-Blue viability [19]: 0.00152 µM; EC50, CellTiter-Blue viability [43]: 0.00154 µM; EC50, CellTiter-Blue viability [20]: 0.00099 µM; EC50, CellTiter-Glo [23]: 0.0359 µM; EC50, CellTiter-Glo [24]: 0.0184 µM; EC50, CellTiter-Glo [26]: 0.00854 µM; EC50, CellTiter-Glo [28]: 0.0141 µM; EC50, CellTiter-Glo [32]: 0.00971 µM
CN1CC[C@H](c2c(O)cc(O)c3c(=O)cc(-c4ccccc4Cl)oc23)[C@H](O)C1 [Alvocidib]	0.165 µM	0.141 µM	0.153 µM	0.163 µM	> 10 µM	0.135 µM	0.42 µM	0.806 µM	0.183 µM	0.242 µM	0.335 µM	0.359 µM	0.143 µM	0.294 µM	0.282 µM	0.357 µM	0.243 µM	0.183 µM	0.376 µM	0.167 µM	EC50, CellTox Green [40]: 0.558 µM; EC50, CellTox Green [41]: 1.01 µM; EC50, CellTox Green [10]: 0.473 µM; EC50, CellTox Green [12]: 0.167 µM; EC50, CellTox Green [13]: 1.79 µM; EC50, CellTiter-Blue viability [15]: 0.278 µM; EC50, CellTiter-Blue viability [16]: 0.19 µM; EC50, CellTiter-Blue viability [17]: 0.165 µM; EC50, CellTiter-Blue viability [18]: 0.174 µM; EC50, CellTiter-Blue viability [19]: 0.127 µM; EC50, CellTiter-Blue viability [43]: 0.278 µM; EC50, CellTiter-Blue viability [20]: 0.0936 µM; EC50, CellTiter-Glo [23]: 0.417 µM; EC50, CellTiter-Glo [24]: 0.548 µM; EC50, CellTiter-Glo [26]: 0.368 µM; EC50, CellTiter-Glo [28]: 0.218 µM; EC50, CellTiter-Glo [32]: 0.372 µM
COc1cc(Nc2ncc3c(n2)-c2ccc(Cl)cc2C(c2c(F)cccc2OC)=NC3)ccc1C(=O)O [Alisertib]	–	–	–	–	8.37 µM	0.0148 µM	–	0.0182 µM	0.0761 µM	0.99 µM	0.615 µM	0.0416 µM	0.027 µM	0.177 µM	0.0246 µM	1.74 µM	0.659 µM	8.41 µM	0.0779 µM	0.0764 µM	EC50, CellTox Green [41]: 0.756 µM; EC50, CellTox Green [42]: 0.0155 µM; EC50, CellTox Green [44]: 7.46 µM; EC50, CellTox Green [11]: 0.156 µM
